This is an account of results in patent US11998551B2, “Treatment of mitochondrial diseases” (FUNDACIÓ HOSPITAL UNIVERSITARI VALL D'HEBRON-INSTITUT DE …, priority 2015, dated 2024).

The test system of the experiment is quiescent fibroblasts from healthy controls. Briefly: mtDNA copy number (quantitative PCR) after EtBr-forced depletion in quiescent fibroblasts from healthy controls. The class given is cell-based, human. The settings on record: control cells, 14 days exposure to 5 ng/ml EtBr. The procedure: Primary cultured fibroblasts were obtained from skin biopsies of patients 1-3 and 4 healthy donors. All subjects gave informed consent in accordance with our Institutional Review Boards and the Declaration of Helsinki.
Cells were seeded in 6-well plates of 9.5 cm^2 in Dulbecco's modified Eagle's medium (DMEM) with 4.5 g/L glucose, supplemented with 2 mM L-glutamine, 100 U/ml penicillin and streptomycin, and 10% dialyzed Fetal Bovine Serum (FBS) (Invitrogen) in a humidified incubator at 37° C. and 5% CO2. After tight confluence was reached, FBS was reduced to 0.1% to induce quiescence and simultaneous treatment with 5 ng/ml of EtBr (ethidium bromide, Merck) was initiated (day 0, t0). Cell media was replaced with the same treatment every 2-3 days for two weeks. At day 14 (t14) EtBr was withdrawn from cell media and the treatment of a set of all cells was initiated with 200 μM of all four deoxynucleosides (dNs): dAdo (deoxyadenosine, Sigma), dCtd (deoxycytidine, Sigma), dGuo (deoxyguanosine, Sigma), dThd (deoxythymidine, Sigma) and 5 μM EHNA (Sigma). A set of cells was left untreated and all parameters were monitored in parallel. Cell media was replaced with the same treatment every 2-3 days for 12 additional days. At days 16 or 17 media were collected and stored at −20° C. until further use. […]
mtDNA copy number was assessed by quantitative PCR as previously described. […]

With `CC[n+]1c(-c2ccccc2)c2cc(N)ccc2c2ccc(N)cc21` [EtBr, ethidium bromide], the “averaged percentage of mtDNA residual levels ± SE” value is recorded as 39.68±6.6%.
